From PubChem BioAssay (NCI)
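In this assay, cells in 96-well plates receive the compound at five concentrations for 48 hours. Endpoints are linearly interpolated between the surrounding concentrations. At the GI50, growth is halved. TGI marks complete inhibition of growth.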 Where a SMILES comes first, the peptide text is derived from it. [ ]: non-standard residue; d: D form. The star is where a group is joined. Ac5c = NC1(C(=O)O)CCCC1; Boc = CC(C)(C)OC(=O)*; tBu = CC(C)(C)*

How the values were obtained:
Experiment in all cases: DTP human tumour cell line panel, 48 h
[1] = test system: A549 NSCLC
[2] = test system: IGROV1 ovarian
[3] = test system: NCI/ADR-RES ovarian
[4] = test system: MALME-3M melanoma
[5] = test system: MCF7 breast
[6] = test system: SNB-75 CNS
[7] = test system: ACHN renal
[8] = test system: SF-268 CNS
[9] = test system: RPMI-8226 leukemia
[10] = test system: MDA-MB-435
[11] = test system: SR leukemia
[12] = test system: MOLT-4 leukemia
[13] = test system: HL-60(TB) leukemia
[14] = test system: NCI-H460 lung
[15] = test system: HOP-92 NSCLC
[16] = test system: SK-MEL-2 melanoma
[17] = test system: HOP-62 NSCLC
[18] = test system: SK-MEL-28 melanoma
[19] = test system: SW-620 colon
[20] = test system: 786-0 renal
[21] = test system: SK-MEL-5 melanoma
[22] = test system: K-562 leukemia
[23] = test system: COLO 205 colon
[24] = test system: CAKI-1 renal
[25] = test system: OVCAR-4 ovarian
[26] = test system: OVCAR-5 ovarian
[27] = test system: NCI-H23 lung
[28] = test system: UACC-62 melanoma
[29] = test system: CCRF-CEM leukemia
[30] = test system: U251 CNS
[31] = test system: RXF 393 renal
[32] = test system: SK-OV-3 ovarian
[33] = test system: M14 melanoma
[34] = test system: T-47D breast
[35] = test system: UACC-257 melanoma
[36] = test system: NCI-H226 lung
[37] = test system: HCT-15 colon
[38] = test system: UO-31 renal
[39] = test system: SF-539 CNS
[40] = test system: SN12C renal
[41] = test system: OVCAR-3 ovarian
[42] = test system: TK-10 renal
[43] = test system: BT-549 breast
[44] = test system: HCT-116 colon
[45] = test system: MDA-MB-231 breast
[46] = test system: SNB-19 CNS
[47] = test system: OVCAR-8 ovarian
[48] = test system: DU-145 prostate
[49] = test system: PC-3 prostate
[50] = test system: EKVX NSCLC
[51] = test system: HS 578T breast
[52] = test system: LOX IMVI melanoma
[53] = test system: HCC-2998 colon
[54] = test system: HT29 colon
[55] = test system: KM12 colon
[56] = test system: NCI-H522 lung
[57] = test system: SF-295 CNS
[58] = test system: A498 renal

C=CCNc1nc2c(N)ncnc2s1
TGI [1]: > 10000 nM
TGI [2]: > 10000 nM
TGI [3]: > 10000 nM
TGI [4]: > 10000 nM
TGI [5]: > 10000 nM
TGI [6]: > 10000 nM
TGI [7]: > 10000 nM
TGI [8]: > 10000 nM
TGI [9]: > 10000 nM
TGI [10]: > 10000 nM
TGI [11]: > 10000 nM
TGI [12]: > 10000 nM
TGI [13]: > 10000 nM
TGI [14]: > 10000 nM
TGI [15]: > 10000 nM
TGI [16]: > 10000 nM
TGI [17]: > 10000 nM
TGI [18]: > 10000 nM
TGI [19]: > 10000 nM
TGI [20]: > 10000 nM
TGI [21]: > 10000 nM
TGI [22]: > 10000 nM
TGI [23]: > 10000 nM
TGI [24]: > 10000 nM
TGI [25]: > 10000 nM
TGI [26]: > 10000 nM
TGI [27]: > 10000 nM
TGI [28]: > 10000 nM
TGI [29]: > 10000 nM
TGI [30]: > 10000 nM
TGI [31]: > 10000 nM
TGI [32]: > 10000 nM
TGI [33]: > 10000 nM
TGI [34]: > 10000 nM

CC(OC(C)(C)C)C1NC(=O)C(CCCCNC(=O)OC(C)(C)C)NC(=O)C(Cc2c[nH]c3ccccc23)NC(=O)C(Cc2ccccc2)NC(=O)C2(CCCC2)NC(=O)C(Cc2ccccc2)NC1=O (configuration not stated) (cyclo([Ac5c]FWK(Boc)T(tBu)F); configuration not given here)
TGI [35]: 46600 nM
TGI [15]: 67100 nM
TGI [36]: 47600 nM
TGI [27]: > 100000 nM

Cn1cc(-c2nc(-c3c[nH]c4ccccc34)cs2)c2cccnc21
GI50 [1]: 608 nM
TGI [1]: > 100000 nM
GI50 [2]: 1130 nM
TGI [2]: > 100000 nM
GI50 [3]: 110 nM
TGI [3]: 3370 nM
GI50 [4]: 745 nM
TGI [4]: 86600 nM
GI50 [5]: 325 nM
TGI [5]: > 100000 nM
GI50 [35]: 14200 nM
TGI [35]: > 100000 nM
GI50 [37]: 221 nM
TGI [37]: > 100000 nM
GI50 [38]: 649 nM
TGI [38]: > 100000 nM
GI50 [6]: 161 nM
TGI [6]: 779 nM
GI50 [7]: 527 nM
TGI [7]: > 100000 nM
GI50 [8]: 689 nM
TGI [8]: > 100000 nM
GI50 [9]: 541 nM
TGI [9]: 32300 nM
GI50 [10]: 32.1 nM
TGI [10]: 250 nM
GI50 [11]: 167 nM
TGI [11]: > 79400 nM
GI50 [39]: 282 nM
TGI [39]: 1440 nM
GI50 [40]: 2090 nM
TGI [40]: > 100000 nM
GI50 [12]: 757 nM
TGI [12]: > 60300 nM
GI50 [41]: 200 nM
TGI [41]: 5900 nM
GI50 [13]: 317 nM
TGI [13]: > 72400 nM
GI50 [14]: 339 nM
TGI [14]: > 100000 nM
GI50 [15]: 295 nM
TGI [15]: 17200 nM
GI50 [42]: 1460 nM
TGI [42]: 65100 nM
GI50 [43]: 325 nM
TGI [43]: 17800 nM
GI50 [44]: 364 nM
TGI [44]: > 47200 nM
GI50 [16]: 353 nM
TGI [16]: 51800 nM
GI50 [36]: 578 nM
TGI [36]: > 100000 nM
GI50 [17]: 626 nM
TGI [17]: 59900 nM
GI50 [18]: 710 nM
TGI [18]: > 100000 nM
GI50 [45]: 1290 nM
TGI [45]: > 100000 nM
GI50 [19]: 221 nM
TGI [19]: > 100000 nM
GI50 [46]: 530 nM
TGI [46]: > 100000 nM
GI50 [20]: 525 nM
TGI [20]: 49400 nM
GI50 [21]: 255 nM
TGI [21]: 16100 nM
GI50 [22]: 106 nM
TGI [22]: > 100000 nM
GI50 [47]: 689 nM
TGI [47]: > 100000 nM
GI50 [48]: 564 nM
TGI [48]: > 100000 nM
GI50 [23]: 188 nM
TGI [23]: 1030 nM
GI50 [49]: 410 nM
TGI [49]: > 100000 nM
GI50 [24]: 273 nM
TGI [24]: > 100000 nM
GI50 [25]: 756 nM
TGI [25]: > 60400 nM
GI50 [26]: 2110 nM
TGI [26]: > 100000 nM
GI50 [50]: 907 nM
TGI [50]: > 100000 nM
GI50 [27]: 1040 nM
TGI [27]: > 100000 nM
GI50 [51]: 424 nM
TGI [51]: > 85100 nM
GI50 [52]: 628 nM
TGI [52]: > 100000 nM
GI50 [28]: 388 nM
TGI [28]: > 72900 nM
GI50 [29]: 353 nM
TGI [29]: > 100000 nM
GI50 [30]: 432 nM
TGI [30]: > 53900 nM
GI50 [31]: 368 nM
TGI [31]: 15900 nM
GI50 [53]: 844 nM
TGI [53]: > 79700 nM
GI50 [54]: 166 nM
TGI [54]: 18300 nM
GI50 [32]: 523 nM
TGI [32]: > 82400 nM
GI50 [55]: 314 nM
TGI [55]: 22800 nM
GI50 [33]: 234 nM
TGI [33]: > 54200 nM
GI50 [56]: 58.6 nM
TGI [56]: 6670 nM
GI50 [57]: 268 nM
TGI [57]: 19800 nM
GI50 [58]: 315 nM
TGI [58]: 6100 nM
